# Reference: patent US20140275282A1, “Treating osteopenia and related disorders with geranylgeranyl acetone and derivatives thereof” (COYOTE PHARMACEUTICALS, INC., priority 2013, published 2014)
# Test system: osteoclast-mediated bone resorption
# Experiment: Inhibition of osteoclast function in vivo by monitoring bone resorption in young growing mice
# Conditions: young growing mice aged 3-4 weeks, subcutaneous bid for 14 days (5 mg/kg/day)
# Procedure: GGA and derivatives can be tested for their ability to modulate osteoclast function by administering to animals and monitoring bone resorption. One model is to determine the effects on bone resorption of young growing mice as previously described (Schenk et al., Calcif. Tissues Int 38:342-349, 1986; Simonet et al., Cell 89, 308-319, 1997). Young growing mice aged 3-4 weeks, weight range 9.2-15.7 g are divided into groups of ten mice per group. These mice are injected subcutaneously with saline or test compounds bid for 14 days (5 mg/kg/day). The mice are then radiographed before treatment, at day 7 and on day 14. The mice were sacrificed 24 hours after the final injection. The right femur is then removed, fixed in zinc formalin, decalcified in formic acid and embedded in paraffin. Sections are cut through the mid region of the distal femoral metaphysis and the femoral shaft. Bone density, by histomorphometry, is determined in six adjacent regions extending from the metaphyseal limit of the growth plate, through the primary and secondary spongiosa and into the femoral diaphysis (shaft). […] This is a region where bone is rapidly removed by osteoclast-mediated bone resorption in mice. In these rapidly growing young mice, the increase in bone in this region observed with treatment is consistent with an inhibition of bone resorption.
smiles,measurement,setting,value
"CC(=O)CCC=C(C)CCC=C(C)CCC=C(C)CCC=C(C)C [GGA, Geranylgeranyl acetone]","Radiographic changes: zone of bone density in the spongiosa associated with the growth plates, relative to controls",after seven days of treatment,increased bone density
same,"Histological changes: bone density (histomorphometry) in distal femoral metaphysis, regions 1.1 to 2.65 mm from the growth plate",right femur removed 24 hours after final injection,increased bone density
